{"source": "patent US11364305B2", "about": "“Nanoparticle conjugates and uses thereof” (UNIVERSITY OF MIAMI, priority 2015, dated 2022)", "key": {"MDSC and macrophages": {"tested_on": "MDSC and macrophages", "test": "In vivo specificity of 4PD in CT26 bearing mice (multicolor flow cytometry of tumor, spleen, liver)", "set-up": "species or system mouse", "conditions": "for Alexa555-shRNA accumulation in cell subsets: with cardiolipin", "method": "Mice bearing the CT26 colon carcinoma (0.7 cm in diameter) were injected with Alexa555-siRNA loaded onto 4PD (black bar) or, as control, onto G5 PAMAM dendrimer functionalized with a random peptide. Two hours later, mice were sacrificed. Single cell suspensions from the spleen, the tumor and the liver were labeled with antibodies specific for Gr1, CD11b, F4/80, CD11c, CD3, CD4, and CD8 to identify granulocytic MDSC (gMDSC), monocytic MDSC (mMDSC), macrophages, dendritic cells, and helper and cytotoxic T cell. Fluorescence in the Alexa555 channel in each population was evaluated by FACSas a read out of 4PD mediated transfection.\nIn order to evaluate 4PD specificity in vivo, Balb/c mice bearing the CT26 colon carcinoma were injected intravenously with 20 ug of Alexa555-shRNA loaded into the 4PD platform with cardiolipin. Alexa 555-shRNA loaded dendrimer coupled with control peptide (a mixture of random peptides) were used as control. Cardiolipin was added to the complexes as described above (FIG. 3). Two hours after 4PD/Alexa555-shRNA systemic injection, mice were sacrificed and single cell suspension from the tumor, the spleen, and the liver was analyzed by multicolor flow cytometry (FIG. 10). In particular, cells were stained with CD11b, Gr1, CD11c and F4/80 specific antibodies to identify granulocytic− (g−) MDSCs (CD11bGr1high), monocytic− (m−) MDSCs (CD11b+GR1−), CD11b+Gr-1 negative myeloid cells, F4/80+macrophages, and CD11chigh DC. Additionally, cells were stained with antibodies specific for CD3, CD8, and CD4 to recognize T cell subsets."}, "CD11b+MDSC": {"tested_on": "CD11b+MDSC", "test": "Alexa555-shRNA transfection of CD11b+ MDSC from CT26 tumor bearing mice (FACS, fluorescence microscopy)", "assay_type": "cell-based, mouse", "conditions": "15 minutes at 37° C., then 2 hours; FACS and fluorescence microscopy", "method": "MDSC isolated from CT26 tumor bearing mice were transfected with: 1) Alexa555-siRNA alone (gray filled line in FIGS. 5A and 5B), 2) Alexa555-siRNA Dendrimer (black line, bottom panel, FIG. 5B) or 3) Alexa555-siRNA IL4Rα targeting dendrimer (black line, top panel, FIG. 5A). 45 minutes later cells were analyzed by immune-fluorescence microscopy (FIG. 5C) and by FACS (FIG. 5B) after gating on the alive (DAPI negative) cells.\n(§1) Next, the ability of 4PD to bind to the native IL4Rα receptor expressed on a cell membrane was evaluated. To this aim, the capacity of 4PD to recognize CD11b+myeloid cells isolated from tumor bearing mice was evaluated. Briefly, CD11b+MDSC were magnetically isolated from the spleen of Balb/c mice challenged 2 weeks before with the CT26 colon carcinoma. Purified cells were incubated at 37° C. for 15 minutes with Alexa555-shRNA loaded onto 4PD or dendrimers conjugated with scramble peptide as negative control. After the incubation, cells were washed and incubated for an additional 2 hours at 37° C. in CTL media. Cells were harvested and analyzed by FACS (FIG. 5B) or by fluorescence microscopy (FIG. 5C) to determine Alexa-555-shRNA transfection. […] Similarly (FIG. 6B), Alexa555 fluorescence can be found only on CD33+IL4Rα+ MDSCs (black histogram) but not in other subsets as the IL4Rα-CD33+ myeloid cells (purple) or the non-myeloid (CD33-IL4Rα−) cells."}, "[1]": {"tested_on": "Bone marrow cells from C57Bl/6 mice", "test": "Transfection of early hematopoietic progenitor cells from bone marrow (flow cytometry)", "assay_type": "cell-based, mouse", "method": "FIG. 24B provides histograms that how the binding of 4PD (open histogram) over the control (filled histogram). The dot blot on the right summarize the binding from ten independent assays.\nBone marrow cells from C57Bl/6 mice were incubated for 10 minutes with 4PD loaded with Alexafluor 555 washed, counterstained with anti-lineage cocktail, anti-CD45, anti-Sca1, anti ckit, anti-CD34, anti-CD16/CD32, anti-CD150 and anti-CD48 antibodies, and analyzed by flow cytometry.\nImportantly, the viability of the cells after transfection was higher than 95%."}, "human MDSCs": {"tested_on": "human MDSCs", "test": "Binding of 4PD/Alexa555-shRNA complexes to PBMCs from HNSCC patients by FACS", "assay_type": "cell-based", "conditions": "30 minutes at 4° C.", "method": "Transfection was evaluated by FACS. In FIG. 6A, the red dot represent the cells transfected with the 4PD nanoparticles (i.e., CD33+IL4Rα+CD11b+CD14+HLADRlow monocytes/MDSC). FIG. 6B depicts the Alexa555 fluorescence in the indicated gates. In FIG. 6C, apparent Kd was calculated by incubating a fixed number of PBMCs with the indicated concentration of Alexa555shRNA/4PD complexes for 10 minutes at 4° C. and by evaluating the MFI in the relevant channel by FACS.\nas §1, with “After the incubation, cells were washed and incubated for an additional 2 hours at 37° C. in CTL media.” left out, “cells. […]” for “cells.”"}}, "note": "[ ]: non-standard residue; d: D form. Abu = CC[C@H](N)C(=O)O; Ahx = NCCCCCC(=O)O", "data": [{"substance": "4PD: G5 PAMAM dendrimer conjugated by maleidoamide chemistry to the IL4Rα targeting peptide of SEQ ID NO: 1 (Ac-LQRLFRAFR[Abu]LD[Ahx]C-NH2; also: Cys14 joined by maleimidobenzoyl thioether to G5 PAMAM dendrimer)", "values": [{"measurement": "Alexa555-shRNA binding", "setting": "MDSC and macrophages; non-myeloid leukocytes subsets, 2 hours after i.v. injection", "value": "Only non-specific level of binding was observed"}, {"measurement": "Alexa555-shRNA accumulation in cell subsets", "setting": "MDSC and macrophages; spleen and liver, 2 hours after i.v. injection", "value": "accumulates mostly in F4/80+ tumor educated macrophages, and CD11b+GR1− myeloid cells"}, {"measurement": "Alexa555-shRNA accumulation in cell subsets", "setting": "MDSC and macrophages; tumor, 2 hours after i.v. injection of 20 ug Alexa555-shRNA", "value": "accumulates mostly in the tumor associated gMDSCs, mMDSC, macrophages and CD11b+Gr1− myeloid cells"}, {"measurement": "Alexa-555-shRNA transfection", "setting": "CD11b+MDSC", "value": "can promote the internalization of Alexa-555 in the cells"}, {"measurement": "transfection", "setting": "[1]; HSC, HPC1, HPC2, MPP, CMP, GMP, 10 minutes incubation", "value": "able to efficiently transfect"}, {"measurement": "viability of the cells after transfection", "setting": "[1]; bone marrow cells", "value": "higher than 95%"}, {"measurement": "transfection", "setting": "[1]; megakariocytes-erythrocyte precursors", "value": "at lower level"}, {"measurement": "cells bound by 4PD among PBMCs", "setting": "human MDSCs", "value": "binds preferentially to CD11b+CD14+CD33+IL4Rα+HLADRdim cells"}]}]}
